Columns and labels:
Human HDAC2 = target: T1, Human HDAC2 (Homo sapiens, UniProt Q92769); assay: HDAC2 biochemical assay, AMC-labeled peptide substrate; details: read-out: HDAC Isoform IC50 (nM) 2
T1 construct: full length with C-terminal GST-tag; GST (C); host or cells: baculovirus expression system
Description: (§1) Activity against all zinc-dependent HDACs 1 to 11 was assessed by using an acetylated AMC-labeled peptide substrate. The substrate RHKK(Ac)AMC was used for HDAC1, HDAC2, HDAC3, HDAC6 and HDAC10; the substrate used for HDAC8 was RHK(Ac)K(Ac)AMC. Activity against the class IIa HDACs (HDAC4, 5, 7, 9) and HDAC11 was determined using a class IIa-specific substrate, BOC-Lys(trifluoroacetyl)-AMC (“Trifluoroacetyl Lysine”; see Lahm et al, 2007, PNAS, 104, 17335-17340). All assays were based on the AMC-labeled substrate and developer combination.
(§2) The protocol involved a two-step reaction: first, the substrate with the acetylated lysine side chain is incubated with a sample containing HDAC activity, to produce the deacetylated products, which are then digested in the second step by the addition of developer to produce the fluorescent signal proportional to the amount of deacetylated substrates.
Human HDAC2 (GenBank Accession No. NM_001527), full length with C-terminal GST-tag, MW=82.9 kDa, expressed inbaculovirus expression system.
(§3) Assay Buffer: 50 mM Tris-HCl, pH8.0, 137 mM NaCl, 2.7 mM KCl, 1 mM MgC2. Before use, 1 mg/mL BSA and DMSO are added.
HDAC2: 0.07 ng/ul HDAC2 and 50 μM HDAC substrate are in the reaction buffer with 1% DMSO final. Incubate for 1 hour at 30° C.
(§4) Stage 1: Deacetylation of substrate by incubation of HDAC enzymes with compounds
(§5) Stage 2: Development by addition of Developer to digest the deacetylated substrate, and generate the fluorescent colour; Detection: 360/460 Ex/Em

Human HDAC7 = target: T2, Human HDAC7 (Homo sapiens, UniProt Q8WUI4); assay: HDAC7 biochemical assay, class IIa-specific substrate; details: read-out: HDAC Isoform IC50 (nM) 7
T2 construct: (a.a. 518-end) with N-terminal GST tag; GST (N); host or cells: baculovirus expression system
T2 sequence (Q8WUI4 518-952 limits assumed): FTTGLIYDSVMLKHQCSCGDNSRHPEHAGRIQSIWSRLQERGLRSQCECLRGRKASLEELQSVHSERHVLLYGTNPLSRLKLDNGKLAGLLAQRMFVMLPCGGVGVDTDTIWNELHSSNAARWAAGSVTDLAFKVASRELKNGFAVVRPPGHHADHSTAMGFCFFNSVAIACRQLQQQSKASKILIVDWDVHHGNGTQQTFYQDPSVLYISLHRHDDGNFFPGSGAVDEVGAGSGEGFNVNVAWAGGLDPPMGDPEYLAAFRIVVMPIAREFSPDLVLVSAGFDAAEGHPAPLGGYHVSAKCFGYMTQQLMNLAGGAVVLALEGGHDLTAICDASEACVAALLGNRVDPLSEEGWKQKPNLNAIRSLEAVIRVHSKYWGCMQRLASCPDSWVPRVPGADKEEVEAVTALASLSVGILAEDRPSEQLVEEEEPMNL
Method in brief: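 Two-step fluorogenic readout: class IIa-selective trifluoroacetyl-lysine AMC substrate (50 μM) deacetylated by N-terminal GST-HDAC7 fragment (0.001 ng/ul), then digested by developer, Ex/Em 360/460. Reaction: 30 min, room temperature, Tris-HCl pH 8.0, NaCl/KCl/MgCl2, 1 mg/mL BSA, 1% DMSO.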

Human HDAC11 = target: T3, Human HDAC11 (Homo sapiens, UniProt Q96DB2); assay: HDAC11 biochemical assay, class IIa-specific substrate; details: read-out: HDAC Isoform IC50 (nM) 11
T3 construct: Human HDAC11 (full length); His (N); host or cells: baculovirus expression system
T3 sequence (Q96DB2 1-347): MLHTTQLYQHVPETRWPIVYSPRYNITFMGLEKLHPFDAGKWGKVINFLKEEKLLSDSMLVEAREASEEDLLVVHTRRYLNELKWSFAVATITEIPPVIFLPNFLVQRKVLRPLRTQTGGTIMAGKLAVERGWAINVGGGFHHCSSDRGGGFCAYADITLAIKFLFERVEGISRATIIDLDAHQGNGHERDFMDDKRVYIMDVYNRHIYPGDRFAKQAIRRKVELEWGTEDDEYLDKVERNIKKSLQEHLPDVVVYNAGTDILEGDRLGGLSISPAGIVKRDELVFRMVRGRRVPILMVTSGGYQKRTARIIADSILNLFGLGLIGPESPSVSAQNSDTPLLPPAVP
Description: as §1, §2
Human HDAC11 (full length) (GenBank Accession No. NM_024827) with N-terminal His tag, MW=42.9 kDa, expressed in baculovirus expression system.
as §3
HDAC11: 5 ng/ul HDAC11 and 50 μMHDAC substrate are in the reaction buffer with 1% DMSO final. Incubate for 30 minutes at 30° C.
as §4, §5

Human HDAC5 = target: T4, Human HDAC5 (Homo sapiens, UniProt Q9UQL6); assay: HDAC5 biochemical assay, class IIa-specific substrate; details: read-out: HDAC Isoform IC50 (nM) 5
T4 construct: full length with C-terminal His tag, MW=51.1 kDa; His (C); host or cells: baculovirus expression system
T4 sequence (Q9UQL6 656-1122 limits assumed): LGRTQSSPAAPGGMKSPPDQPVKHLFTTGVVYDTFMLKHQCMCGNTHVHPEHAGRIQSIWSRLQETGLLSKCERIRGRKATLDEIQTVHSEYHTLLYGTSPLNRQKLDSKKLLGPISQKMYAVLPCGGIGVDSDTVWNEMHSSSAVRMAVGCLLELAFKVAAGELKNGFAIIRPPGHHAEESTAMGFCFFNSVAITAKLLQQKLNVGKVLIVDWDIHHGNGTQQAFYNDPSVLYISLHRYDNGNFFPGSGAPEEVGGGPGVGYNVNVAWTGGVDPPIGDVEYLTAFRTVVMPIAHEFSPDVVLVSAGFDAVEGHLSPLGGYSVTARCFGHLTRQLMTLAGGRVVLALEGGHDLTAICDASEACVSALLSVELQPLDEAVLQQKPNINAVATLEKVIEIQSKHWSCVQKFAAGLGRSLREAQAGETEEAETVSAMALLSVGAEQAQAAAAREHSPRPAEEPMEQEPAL
Method in brief: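 Two-step fluorogenic read-out: deacetylated trifluoroacetyl-lysine AMC substrate (50 μM) digested by developer, measured at Ex/Em 360/460. Deacetylation step: 0.05 ng/ul His-tagged full-length baculoviral enzyme with compound, 30 min, room temperature, pH 8.0 Tris with 1 mg/mL BSA and 1% DMSO.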

[1] = target: T5, Complex of human HDAC3 and human NCOR2 (Homo sapiens, UniProt O15379); assay: HDAC3 biochemical assay, AMC-labeled peptide substrate; details: read-out: HDAC Isoform IC50 (nM) 3
T5 construct: full length with C-terminal His tag, MW=49.7 kDa; His (C); host or cells: baculovirus expression system (co-expressed)
T5 sequence (O15379 whole entry, canonical isoform): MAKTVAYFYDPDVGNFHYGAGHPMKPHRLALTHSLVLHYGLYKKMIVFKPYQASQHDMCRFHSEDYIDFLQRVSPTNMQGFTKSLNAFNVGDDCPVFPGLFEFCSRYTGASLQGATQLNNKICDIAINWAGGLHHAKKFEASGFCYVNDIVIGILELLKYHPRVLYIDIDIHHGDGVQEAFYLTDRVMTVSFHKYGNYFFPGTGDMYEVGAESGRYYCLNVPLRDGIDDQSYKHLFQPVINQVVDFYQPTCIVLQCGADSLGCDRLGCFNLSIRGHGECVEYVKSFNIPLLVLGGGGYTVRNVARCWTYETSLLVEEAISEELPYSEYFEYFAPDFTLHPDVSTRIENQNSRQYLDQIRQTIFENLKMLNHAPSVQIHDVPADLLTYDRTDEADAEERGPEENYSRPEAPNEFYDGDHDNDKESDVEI
T5 sequence (Q9Y618 395-489 partner limits assumed): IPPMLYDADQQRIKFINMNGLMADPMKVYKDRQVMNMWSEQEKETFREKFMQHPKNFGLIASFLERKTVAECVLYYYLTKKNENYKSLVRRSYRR
Description: as §1, §2
Complex of human HDAC3 (GenBank Accession No. NM_003883), full length with C-terminal His tag, MW=49.7 kDa, and human NCOR2 (amino acid 395-489) (GenBank Accession No. NM_006312), N-terminal GST tag, MW=37.6 kDa, co-expressed in baculovirus expression system.
as §3
HDAC3: 0.1 ng/ul HDAC3 and 50 μM HDAC substrate are in the reaction buffer with 1% DMSO final. Incubate for 1 hour at 30° C.
as §4, §5

T1 sequence (Q92769 whole entry, canonical isoform): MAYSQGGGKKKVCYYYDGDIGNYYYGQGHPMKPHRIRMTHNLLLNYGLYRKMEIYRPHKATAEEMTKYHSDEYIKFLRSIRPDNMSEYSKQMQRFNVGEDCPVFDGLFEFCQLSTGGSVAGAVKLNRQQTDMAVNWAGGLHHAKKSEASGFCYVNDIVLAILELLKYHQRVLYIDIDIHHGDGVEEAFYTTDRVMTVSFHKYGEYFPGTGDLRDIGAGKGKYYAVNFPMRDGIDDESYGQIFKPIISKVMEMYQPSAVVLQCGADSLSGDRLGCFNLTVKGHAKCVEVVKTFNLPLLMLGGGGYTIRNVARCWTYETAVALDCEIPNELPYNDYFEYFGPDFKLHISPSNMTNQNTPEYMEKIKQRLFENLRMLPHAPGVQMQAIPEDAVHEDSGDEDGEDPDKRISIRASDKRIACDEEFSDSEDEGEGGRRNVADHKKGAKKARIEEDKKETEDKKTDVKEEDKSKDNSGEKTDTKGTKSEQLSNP

`FC(F)c1cnnc(N(Cc2ccc(-c3noc(C(F)(F)F)n3)s2)c2cnccn2)c1` [Example GV, 5-(Difluoromethyl)-N-(pyrazin-2-yl)-N-({5-[5-(trifluoromethyl)-1,2,4-oxadiazol-3-yl]thiophen-2-yl}methyl)pyridazin-3-amine] gave an IC50 (Human HDAC2) of over 10000 nM, an IC50 (Human HDAC7) of at most 1000 nM and an IC50 (Human HDAC11) of over 10000 nM. The IC50 (Human HDAC5) was at most 1000 nM and the IC50 [1] was over 10000 nM.
In the case of `COc1cnc(N(Cc2ccc(-c3noc(C(F)(F)F)n3)s2)c2cnccn2)cn1` [Example BI, 5-Methoxy-N-(pyrazin-2-yl)-N-({5-[5-(trifluoromethyl)-1,2,4-oxadiazol-3-yl]thiophen-2-yl}methyl)pyrazin-2-amine], the IC50 (Human HDAC2) is reported as over 10000 nM, the IC50 (Human HDAC7) is reported as at most 500 nM and the IC50 (Human HDAC11) is reported as over 10000 nM. It also gave an IC50 (Human HDAC5) of at most 10000 nM and an IC50 [1] of over 10000 nM.
`FC(F)(F)c1nc(-c2ccc(CN(c3cnccn3)c3cc(N4CCCC4)cnn3)s2)no1` [Example FQ, N-(Pyrazin-2-yl)-5-(pyrrolidin-1-yl)-N-({5-[5-(trifluoromethyl)-1,2,4-oxadiazol-3-yl]thiophen-2-yl}methyl)pyridazin-3-amine] was tested, and the IC50 (Human HDAC2) was over 10000 nM, the IC50 (Human HDAC7) was at most 10000 nM and the IC50 (Human HDAC11) was over 10000 nM. For the same compound, the IC50 (Human HDAC5) was at most 1000 nM and the IC50 [1] was over 10000 nM.
In the case of `O=C(c1cnnc(N(Cc2ccc(-c3noc(C(F)(F)F)n3)s2)c2cnccn2)c1)N1C2CCC1COC2` [Example GB, 5-{3-Oxa-8-azabicyclo[3.2.1]octane-8-carbonyl}-N-(pyrazin-2-yl)-N-({5-[5-(trifluoromethyl)-1,2,4-oxadiazol-3-yl]thiophen-2-yl}methyl)pyridazin-3-amine], the IC50 (Human HDAC2) is reported as over 10000 nM, the IC50 (Human HDAC7) is reported as at most 10000 nM and the IC50 (Human HDAC11) is reported as over 10000 nM. It also gave an IC50 (Human HDAC5) of at most 1000 nM and an IC50 [1] of over 10000 nM.
Compound `FC(F)(F)c1cncc(N(Cc2ccc(-c3noc(C(F)(F)F)n3)s2)c2cnccn2)n1` [Example BR, N-(Pyrazin-2-yl)-6-(trifluoromethyl)-N-({5-[5-(trifluoromethyl)-1,2,4-oxadiazol-3-yl]thiophen-2-yl}methyl)pyrazin-2-amine] has an IC50 (Human HDAC2) of over 10000 nM, an IC50 (Human HDAC7) of at most 10000 nM and an IC50 (Human HDAC11) of over 10000 nM. It also gave an IC50 (Human HDAC5) of at most 10000 nM and an IC50 [1] of over 10000 nM.
`CC(F)(F)c1cnnc(N(Cc2ccc(-c3noc(C(F)(F)F)n3)s2)c2cnccn2)c1` [Example GU, 5-(1,1-Difluoroethyl)-N-(pyrazin-2-yl)-N-({5-[5-(trifluoromethyl)-1,2,4-oxadiazol-3-yl]thiophen-2-yl}methyl)pyridazin-3-amine] gave an IC50 (Human HDAC2) of over 10000 nM, an IC50 (Human HDAC7) of at most 10000 nM and an IC50 (Human HDAC11) of over 10000 nM. It also gave an IC50 (Human HDAC5) of at most 10000 nM and an IC50 [1] of over 10000 nM.
With `O=C(c1cnnc(N(Cc2ccc(-c3noc(C(F)(F)F)n3)s2)c2cnccn2)c1)N1CC(O)(C(F)(F)F)C1` [Example GD, 1-{6-[(Pyrazin-2-yl)({5-[5-(trifluoromethyl)-1,2,4-oxadiazol-3-yl]thiophen-2-yl}methyl)amino]pyridazine-4-carbonyl}-3-(trifluoromethyl)azetidin-3-ol] the IC50 (Human HDAC2) was over 10000 nM, the IC50 (Human HDAC7) was at most 1000 nM and the IC50 (Human HDAC11) was over 10000 nM. The IC50 (Human HDAC5) was at most 1000 nM and the IC50 [1] was at most 10000 nM.
Compound `COC1(C(F)(F)F)CN(C(=O)c2cnnc(N(Cc3ccc(-c4noc(C(F)(F)F)n4)s3)c3cnccn3)c2)C1` [Example GL, 5-[3-Methoxy-3-(trifluoromethyl)azetidine-1-carbonyl]-N-(pyrazin-2-yl)-N-({5-[5-(trifluoromethyl)-1,2,4-oxadiazol-3-yl]thiophen-2-yl}methyl)pyridazin-3-amine] has an IC50 (Human HDAC2) of over 10000 nM, an IC50 (Human HDAC7) of at most 10000 nM and an IC50 (Human HDAC11) of over 10000 nM. The IC50 (Human HDAC5) was at most 1000 nM and the IC50 [1] was at most 10000 nM.
`O=C(c1cnnc(N(Cc2ccc(-c3noc(C(F)(F)F)n3)s2)c2cnccn2)c1)N1CC2(COC2)C1` [Example FZ, 5-{2-Oxa-6-azaspiro[3.3]heptane-6-carbonyl}-N-(pyrazin-2-yl)-N-({5-[5-(trifluoromethyl)-1,2,4-oxadiazol-3-yl]thiophen-2-yl}methyl)pyridazin-3-amine] gave an IC50 (Human HDAC2) of over 10000 nM, an IC50 (Human HDAC7) of at most 1000 nM and an IC50 (Human HDAC11) of over 10000 nM. It also gave an IC50 (Human HDAC5) of at most 1000 nM and an IC50 [1] of over 10000 nM.
`O=C(c1ccc(N(Cc2ccc(-c3noc(C(F)(F)F)n3)s2)c2cnccn2)nn1)N1CC(O)(C(F)(F)F)C1` [Example FK, 1-{6-[(Pyrazin-2-yl)({5-[5-(trifluoromethyl)-1,2,4-oxadiazol-3-yl]thiophen-2-yl}methyl)amino]pyridazine-3-carbonyl}-3-(trifluoromethyl)azetidin-3-ol] showed an IC50 (Human HDAC2) of over 10000 nM, an IC50 (Human HDAC7) of at most 500 nM and an IC50 (Human HDAC11) of over 10000 nM. The IC50 (Human HDAC5) was at most 500 nM and the IC50 [1] was at most 10000 nM.
With `O=C(O)c1cnnc(N(Cc2ccc(-c3noc(C(F)(F)F)n3)s2)c2cnccn2)c1` [Example DW, 6-[(Pyrazin-2-yl)({5-[5-(trifluoromethyl)-1,2,4-oxadiazol-3-yl]thiophen-2-yl}methyl)amino]pyridazine-4-carboxylic acid] the IC50 (Human HDAC2) was over 10000 nM, the IC50 (Human HDAC7) was at most 10000 nM and the IC50 (Human HDAC11) was over 10000 nM. It also gave an IC50 (Human HDAC5) of at most 10000 nM and an IC50 [1] of over 10000 nM.
`FC(F)(F)c1cnnc(N(Cc2ccc(-c3noc(C(F)(F)F)n3)s2)c2cc(C(F)(F)F)cnn2)c1` [Example EU, 5-(Trifluoromethyl)-N-({5-[5-(trifluoromethyl)-1,2,4-oxadiazol-3-yl]thiophen-2-yl}methyl)-N-[5-(trifluoromethyl)pyridazin-3-yl]pyridazin-3-amine] gave an IC50 (Human HDAC7) of at most 10000 nM and an IC50 (Human HDAC5) of at most 10000 nM.
For `FC(F)(F)c1cnnc(N(Cc2ccc(-c3noc(C(F)(F)F)n3)s2)c2cccnn2)c1` [Example ER, N-(Pyridazin-3-yl)-5-(trifluoromethyl)-N-({5-[5-(trifluoromethyl)-1,2,4-oxadiazol-3-yl]thiophen-2-yl}methyl)pyridazin-3-amine], the IC50 (Human HDAC7) was at most 10000 nM and the IC50 (Human HDAC5) was at most 10000 nM.
`COc1cncc(N(Cc2ccc(-c3noc(C(F)(F)F)n3)s2)c2cc(C(F)(F)F)cnn2)n1` [Example EN, N-(6-Methoxypyrazin-2-yl)-5-(trifluoromethyl)-N-({5-[5-(trifluoromethyl)-1,2,4-oxadiazol-3-yl]thiophen-2-yl}methyl)pyridazin-3-amine] gave an IC50 (Human HDAC7) of at most 10000 nM and an IC50 (Human HDAC5) of at most 10000 nM.

Reference: patent publication US20210038607A1, “OXADIAZOLYLTHIOPHENE DERIVATIVES USEFUL AS HISTONE DEACETYLASE INHIBITORS” (Karus Therapeutics Limited, priority 2018, published 2021)
